Experimental data: patent publication US6071966A, “1-amino-alkylcyclohexane NMDA receptor antagonists” (Merz + Co. GmbH & Co., priority 1998, dated 2000)
Structures can show the parent of a compound that is named as a salt.

Experiments:
[1] = Rotarod test (motor coordination, ataxia); format: in vivo; conditions: mouse, ip, mice, i.p., Table 8, read-out: TI Rot. (ED50 rotarod failure / ED50 MES)
Protocol: All compounds were dissolved in 0.9% saline.
(§1) The MES test was performed together with tests for myorelaxant action (traction reflex) and motor coordination (rotarod). For the traction reflex test mice were placed with their forepaws on a horizontal rod and were required to place all 4 paws on the wire within 10 seconds. To test ataxia (motor coordination) mice were placed on rotarod (5 rpm) and were required to remain on the rod for 1 minute. […] These tests were followed by MES (100 Hz, 0.5 second shock duration, 50 mA shock intensity, 0.9 ms impulse duration, Ugo Basile) applied through corneal electrodes. The presence of tonic convulsions was scored (tonic extension of hind paws with minimum angle to the body of 90°). The aim was to obtain ED50 s for all parameters scored (anticonvulsive activity and motor side effects) with use of the Litchfield Wilcoxon test for quantal dose responses. Division of the ED50 for side effects (ataxia or myorelaxation) by the ED50 for antagonism of electroshock convulsions was used as a therapeutic index (TI).
(§2) Pearson product moment correlation analysis (Sigma Stat, Jandel Scientific) was used to compare in vitro potencies and in vivo anticonvulsant activity.

[2] = Traction reflex test (myorelaxant action); format: in vivo; conditions: mouse, traction reflex versus mes, ip; mice, i.p.; Table 8; read-out: TI Tract. (ED50 traction reflex impairment / ED50 MES)
Protocol: (§3) NMR female mice (18-28 g) housed 5 per cage were used for the maximal electroshock (MES) and motor impairment tests. […] All compounds were dissolved in 0.9% saline.
as §1, with “(TI). […]” for “(TI).”

traction reflex in mice = assay: Traction reflex test (myorelaxant action); format: in vivo; conditions: i.p., Table 8
Protocol: as §3
as §1, with “(TI). […]” for “(TI).”

[3] = i.p.; Table 8
NMDA receptor [4] = assay: [3H]-(+)-MK-801 receptor binding to rat cortical membranes; conditions: read-out: [3H]MK-801 IC50, [3H]-(+)-MK-801 5 nM, Table 7
Protocol: Male Sprague-Dawley rats (200-250 g) were decapitated and their brains were removed rapidly. The cortex was dissected and homogenized in 20 volumes of ice-cold 0.32 M sucrose using a glass-Teflon homogenizer. The homogenate was centrifuged at 1000×g for 10 minutes. The pellet was discarded and the supernatant centrifuged at 20,000×g for 20 minutes. The resulting pellet was re-suspended in 20 volumes of distilled water and centrifuged for 20 minutes at 8000×g. Then the supernatant and the buffy coat were centrifuged three times (48,000×g for 20 minutes) in the presence of 50 mM Tris-HCl, pH 8.0. All centrifugation steps were carried out at 4° C. After resuspension in 5 volumes of 50 mM Tris-HCl, pH 8.0 the membrane suspension was frozen rapidly at -80° C. On the day of assay the membranes were thawed and washed four times by resuspension in 50 mM Tris-HCl, pH 8.0 and centrifugation at 48,000×g for 20 minutes. The final pellet was suspended in assay buffer. The amount of protein in the final membrane preparation was determined according to the method of Lowry with some modifications. The final protein concentration used for our studies was between 250-500 μg/ml.
Membranes were re-suspended and incubated in 50 mM Tris-HCl, pH 8.0. […] Incubations were terminated using a Millipore filter system. The samples were rinsed three times with 2.5 ml ice cold assay buffer over glass fiber filters obtained from Schleicher & Schuell under a constant vacuum. Filtration was performed as rapidly as possible. Following separation and rinse, the filters were placed into scintillation liquid (5 ml; Ultima Gold) and radioactivity retained on the filters was determined with a conventional liquid scintillation counter (Hewlett Packard, Liquid Scintillation Analyser).
IC50 s in patch clamp, excitotoxicity, and binding studies were calculated according to the four parameter alogistic equation using the Grafit computer program (Erithacus Software, England). Ki value for binding studies were then determined according to Cheng and Prusoff. Binding values presented are means ±SEM of 3-5 determinations (each performed in duplicate).

NMDA receptor [5] = conditions: clinical / human use; cited from earlier work
[6] = test system: MES-induced convulsions in mice; assay: Anticonvulsive activity: maximal electroshock (MES) test; format: in vivo; conditions: for MES ED50: i.p., Table 8, 30 min; for ED50: Mus musculus, ip, 0.5 h
Protocol: as §3, §1, §2

In the case of `CC1(C)CC(N)CC(C)(C)C1` [Mrz 2/557], the selectivity ratio ([1]; rotarod versus mes) is reported as 1.4 and the selectivity ratio [2] is reported as 1.
In the case of `CCCC1(C)CCCC(C)(N)C1` (centres unmarked) [Mrz 2/617], the “TI Tract. (ED50 traction reflex impairment / ED50 MES)” value (traction reflex in mice) is reported as 1.1.
In the case of `CCC1(N)CC(C)(C)CC(C)(C)C1` [Mrz 2/600, 1-amino-1-ethyl-3,3,5,5-tetramethylcyclohexane], the “Min Lethality” value [3] is reported as 50 mg/kg, the selectivity ratio ([1]; rotarod versus mes) is reported as 0.9 and the selectivity ratio [2] is reported as 0.6. It also gave an IC50 (NMDA receptor [4]) of 24 µM.
`CCC[C@@]1(C)C[C@H](C)C[C@@](C)(N)C1` (relative stereo) [Mrz 2/618] gave a selectivity ratio ([1]; rotarod versus mes) of 1.1 and a selectivity ratio [2] of 1.2.
For `CCC1(C)CCCC(C)(N)C1` (centres unmarked) [Mrz 2/620], the selectivity ratio ([1]; rotarod versus mes) was 1.1 and the “TI Tract. (ED50 traction reflex impairment / ED50 MES)” value (traction reflex in mice) was 1.6.
`CCC[C@@H]1CC(C)(C)C[C@@](C)(N)C1` (relative stereo) [Mrz 2/635] showed a selectivity ratio ([1]; rotarod versus mes) of 1.4 and a selectivity ratio [2] of 1.3.
For `C[C@H]1CCC[C@@](C)(N)C1` (relative stereo) [Mrz 2/631], the “Min Lethality” value [3] was > 30 mg/kg.
In the case of `CCC[C@]1(C)C[C@@H](C)C[C@@](C)(N)C1` (relative stereo) [Mrz 2/619], the selectivity ratio ([1]; rotarod versus mes) is reported as 1 and the selectivity ratio [2] is reported as 1.
For `CCC1(C)CC(C)(C)CC(C)(N)C1` (centres unmarked) [Mrz 2/615, 1-amino-1,3,5,5-tetramethyl-3-ethylcyclohexane], the “Min Lethality” value [3] was 50 mg/kg, the selectivity ratio ([1]; rotarod versus mes) was 3.2 and the selectivity ratio [2] was 2.5.
Compound `CC1(C)CC(C)(C)CC(C)(CCN)C1` [Mrz 2/662] has a selectivity ratio ([1]; rotarod versus mes) of 1.2 and a selectivity ratio [2] of 1.
In the case of `NC12CC3CC(CC(C3)C1)C2` [Amantadine, reference compound], the side effects (NMDA receptor [5]) is given as “rarely produce side effects at the therapeutic doses” and the “MES ED50” value [6] is given as 184.0 mg/kg i.p.
With `CC[C@@]1(C)C[C@H](C)C[C@@](C)(N)C1` (relative stereo) [Mrz 2/622] the selectivity ratio ([1]; rotarod versus mes) was 1.7, the selectivity ratio [2] was 1.1 and the IC50 (NMDA receptor [4]) was 150 µM.
In the case of `CNC1(C)CC(C)(C)CC(C)(C)C1.Cl` [Mrz 2/640, N,1,3,3,5,5-hexamethylcyclohexanamine hydrochloride], the “Min Lethality” value [3] is reported as 108 mg/kg, the selectivity ratio ([1]; rotarod versus mes) is reported as 3.3 and the selectivity ratio [2] is reported as 2.3.
With `CCNC1(C)CC(C)(C)CC(C)(C)C1` [Mrz 2/639, N-ethyl-1-amino-1,3,3,5,5-pentamethylcyclohexane] the “Min Lethality” value [3] was 30 mg/kg, the selectivity ratio ([1]; rotarod versus mes) was 4.4 and the selectivity ratio [2] was 2.6.
In the case of `C[C@@H]1C[C@H](C)C[C@@](C)(N)C1` [MRZ 2/680, 1-amino-1(trans),3(trans),5-trimethylcyclohexane], the “TI Tract. (ED50 traction reflex impairment / ED50 MES)” value (traction reflex in mice) is reported as 0.7.
In the case of `CC1(N)CCCCC1` [Mrz 2/641], the “Min Lethality” value [3] is reported as > 50 mg/kg.
With `CC1(C)CC(CCN)CC(C)(C)C1` [Mrz 2/644] the selectivity ratio ([1]; rotarod versus mes) was 0.6 and the selectivity ratio [2] was 0.5.
`C[C@@H]1CC(C)(C)C[C@@](C)(N)C1` (relative stereo) [Mrz 2/607] gave a selectivity ratio ([1]; rotarod versus mes) of 1.7 and a selectivity ratio [2] of 1.3.
For `CC12CC3CC(C)(C1)CC(N)(C3)C2` [Memantine, reference compound], the “TI Tract. (ED50 traction reflex impairment / ED50 MES)” value (traction reflex in mice) is listed as 2.9 and the side effects (NMDA receptor [5]) is listed as “rarely produce side effects at the therapeutic doses”.
In the case of `CCC[C@H]1CC(C)(C)C[C@@](C)(N)C1` (relative stereo) [Mrz 2/634], the “Min Lethality” value [3] is reported as > 30 mg/kg, the ED50 ([6]; Table 8) is reported as > 30 mg/kg and the ED50 ([6]; i.p. 30 min before, Table 7) is reported as > 30 mg/kg.
With `CC[C@H]1CC(C)(C)C[C@](C)(N)C1` [MRZ 2/682, 1-amino-(1R,5S)trans-3-ethyl-1,5,5-trimethylcyclohexane] the “TI Tract. (ED50 traction reflex impairment / ED50 MES)” value (traction reflex in mice) was 2.7.
For `CC1(C)CC(CN)CC(C)(C)C1.Cl` [Mrz 2/580, 3,3,5,5-tetramethylcyclohexylmethylamine hydrochloride], the “Min Lethality” value [3] was 50 mg/kg, the selectivity ratio ([1]; rotarod versus mes) was 1.3 and the selectivity ratio [2] was 1.6.
In the case of `CCC[C@H]1CCC[C@@](C)(N)C1` (relative stereo) [Mrz 2/628], the selectivity ratio ([1]; rotarod versus mes) is reported as 1.6 and the selectivity ratio [2] is reported as 0.8.
With `C[C@H]1CC(C)(C)C[C@@](C)(N)C1` (relative stereo) [Mrz 2/643] the “TI Tract. (ED50 traction reflex impairment / ED50 MES)” value (traction reflex in mice) was 1.3 and the ED50 ([6]; i.p. 30 min before, Table 7) was 16.6 mg/kg.
With `C[C@@H]1C[C@H](C)C[C@](C)(N)C1` [MRZ 2/681, 1-amino-1(cis),3(cis),5-trimethylcyclohexane] the selectivity ratio ([1]; rotarod versus mes) was 5.3 and the “TI Tract. (ED50 traction reflex impairment / ED50 MES)” value (traction reflex in mice) was 2.1.
Compound `CC[C@@H]1CCC[C@@](C)(N)C1` (relative stereo) [Mrz 2/629] has a selectivity ratio ([1]; rotarod versus mes) of 0.9 and a selectivity ratio [2] of 0.9.
For `CN(C)C1(C)CC(C)(C)CC(C)(C)C1` [Mrz 2/642], the selectivity ratio ([1]; in vivo) was 5.3, the selectivity ratio [2] was 4.1 and the “MES ED50” value [6] was 8.04 mg/kg i.p.
With `CCCC1(N)CC(C)(C)CC(C)(C)C1` [Mrz 2/601, 1-amino-1-propyl-3,3,5,5-tetramethylcyclohexane] the “Min Lethality” value [3] was 50 mg/kg, the selectivity ratio ([1]; in vivo) was 1.5 and the selectivity ratio [2] was 1.5. The “MES ED50” value [6] was 15.6 mg/kg i.p.
For `C[C@]12N[C@H](Cc3ccccc31)c1ccccc12` [MK-801, (+)-5-methyl-10,11-dihydro-5H-dibenzocyclohepten-5,10-imine maleate, reference compound], the side effects (NMDA receptor [5]) is listed as “some psychotropic side effects were apparent at therapeutic doses” and the “MES ED50” value [6] is listed as 0.16 mg/kg i.p.
In the case of `CCCC1(C)CC(C)(C)CC(C)(N)C1` (centres unmarked) [Mrz 2/614], the “TI Tract. (ED50 traction reflex impairment / ED50 MES)” value (traction reflex in mice) is reported as 1.9.
In the case of `CC[C@H]1CC(C)(C)C[C@@](C)(N)C1` (relative stereo) [Mrz 2/632], the selectivity ratio ([1]; rotarod versus mes) is reported as 3.4 and the selectivity ratio [2] is reported as 2.7.
Work on `C[C@@H]1CCC[C@@](C)(N)C1` (relative stereo) [Mrz 2/625] yielded a selectivity ratio ([1]; rotarod versus mes) of 1.2 and a selectivity ratio [2] of 0.5.
With `CC[C@H]1CC(C)(C)C[C@@](C)(N)C1` [MRZ 2/683, 1-amino-(1S,5S)cis-3-ethyl-1,5,5-trimethylcyclohexane] the “TI Tract. (ED50 traction reflex impairment / ED50 MES)” value (traction reflex in mice) was 2.7.
With `CCC1(CC)CC(C)(C)CC(C)(N)C1` (centres unmarked) [Mrz 2/623, 1-amino-1,5,5-trimethyl-3,3-diethylcyclohexane] the “Min Lethality” value [3] was > 30 mg/kg, the selectivity ratio ([1]; rotarod versus mes) was 1.8 and the selectivity ratio [2] was 1.4.
Work on `CCC[C@@H]1CCC[C@@](C)(N)C1` (relative stereo) [Mrz 2/627] yielded a selectivity ratio ([1]; rotarod versus mes) of 1 and a selectivity ratio [2] of 0.8.
`CC[C@@H]1CC(C)(C)C[C@@](C)(N)C1` (relative stereo) [Mrz 2/633] gave a selectivity ratio ([1]; rotarod versus mes) of 3 and a selectivity ratio [2] of 2.4.
In the case of `CC[C@H]1CCC[C@@](C)(N)C1` (relative stereo) [Mrz 2/630], the “Min Lethality” value [3] is reported as > 30 mg/kg and the IC50 (NMDA receptor [4]) is reported as 443 µM.
In the case of `CC(C)(N)CC1CC(C)(C)CC(C)(C)C1` [Mrz 2/645], the “TI Tract. (ED50 traction reflex impairment / ED50 MES)” value (traction reflex in mice) is reported as 0.6.
In the case of `CCCC1(CCC)CC(C)(C)CC(C)(N)C1` (centres unmarked) [Mrz 2/626], the “TI Tract. (ED50 traction reflex impairment / ED50 MES)” value (traction reflex in mice) is reported as 1.1.
`CC[C@]1(C)C[C@@H](C)C[C@@](C)(N)C1` (relative stereo) [Mrz 2/624] gave a selectivity ratio ([1]; rotarod versus mes) of 1 and a selectivity ratio [2] of 0.9.
